Test results from paper PMC5198017, “The Influence of Solid Microneedles on the Transdermal Delivery of Selected Antiepileptic Drugs” (Pharmaceutics, 2016).
Where a name gives a salt, the structure may show the parent alone. Read-outs that look alike come from different tables or passages of the source.

Key:
[1] = cited from earlier work
[2] = cited from earlier work; remark: listed apart in the source
[3] = cited from earlier work; remark: listed apart in the source
[4] = In vitro diffusion studies with vertical Franz diffusion cells across untreated and microneedle-treated skin; format: in vitro ADME, pig; conditions: for Transdermal flux, Microneedle: 500 μm microneedle roller-treated porcine ear skin; for Transdermal flux, Microneedle / Transdermal flux, Passive: 12 h, ± SD, n = 6; for Transdermal flux, Passive: untreated porcine ear skin; for Statistical significance of difference in flux, untreated versus microneedle-treated skin: porcine skin, carbamazepine as 20% and 30% ethanol solutions, p < 0.05 considered significant
Experimental: Pig ears were purchased from Pel-Freez Arkansas LLC (Rogers, AR, USA). Upon arrival, ears were shaved with an electric hair clipper. Full-thickness skins were obtained by using a scalpel to remove subcutaneous fat from ear cartilage. An electric dermatome (Nouvag®, Goldach, Switzerland) was used to prepare split-thickness skins. The thickness of the skin samples was determined with the Digimatic micrometer (Mitutoyo, Tokyo, Japan). Skin membranes were wrapped in aluminum foil and stored at -20 °C until ready for use. Experiments were approved by the Institutional Animal Care and Use Committee (IACUC) and Institutional Biosafety Committee (IBC) of Touro University, Mare Island-Vallejo, CA, USA. Microchannels were created on porcine skins using solid microneedle rollers and skin samples were then clamped to the diffusion cells. The roller was applied to the pig ear skin 15 times (five times in the vertical, horizontal and diagonal directions). The roller was applied with a force of 5 kg (measured with a weighing balance) for approximately 1 min per application. Three microneedle-treated split-thickness skin (STS) samples were used for the experiment while three untreated skin samples served as controls. […] The drug was placed on porcine skin. The pig skin was sandwiched between the donor and receptor compartments of Franz diffusion cells. The donor compartment and covered with parafilm and aluminum foil to reduce evaporation. The sampling ports were also sealed. […] Extractions were stored in 2 mL amber vials from Agilent Technologies (Agilent, Santa Clara, CA, USA) and stored at -8 °C until shipment to the University of Idaho for analysis. Receptor chambers were replenished after each extraction with 1 mL of fresh, pre-warmed PBS maintained at 37 °C. We carried out in vitro diffusion studies with six vertical Franz Diffusion cells (PermeGear, Hellertown, PA, USA). Each cell has donor compartments and receptor compartments. In each cell, there is a magnetic stirrer, sampling port, and a water jacket maintained at a 37 °C model human body temperature. The receptor compartment has a diffusion area of 1.77 cm^2 and the volume is 12 mL. The receptor compartment was filled with PBS, and we utilized high-vacuum grease (Dow Corning, Midland, MA, USA) and a metal clamp to prevent loss of the drug solution through lateral diffusion. HPLC analysis was performed using an Agilent 1200 Series HPLC system with a diode array detection (DAD) system coupled to an Agilent […] TOF-MS system equipped with an ESI source (Agilent, Santa Clara, CA, USA). […] The injection volume was 5 μL. The mobile phase comprised of 0.1% formic acid in water (solvent A) and 0.1% formic acid in methanol (solvent B). We first used a linear gradient from 15% to 95% B in 7 min, and then isocratic elution was carried out at 95% B for 2 min. The final equilibration was conducted at 15% B for 5 min. We diverted the flow from the mass spectrometer for the first 3 min of the analysis, in order to prevent MS contamination and ion suppression. The flow rate was 0.3 mL·min^-1. The average cumulative amount of drug permeation through porcine skin was plotted as a function of time. Steady-state flux was calculated from the linear portion of the average cumulative amount versus time curve. Six replicates were utilized for each drug. […] (1) […] Statistical analysis was performed using GraphPad Prism 7 (GraphPad Software, Inc., La Jolla, CA, USA). The Mann-Whitney Rank Sum test was carried out to determine statistical significance. […] The average of replicate measurements (n = 6) with corresponding standard deviation was used to plot the graphs.

[5] = set-up: method as in PMID 23454133; conditions: after application of nanostructured lipid carriers; cited from earlier work
[6] = carbamazepine 1 mg/mL in 20% ethanol/PBS, listed as Carbamazepine in 20% ethanol
[7] = carbamazepine 1 mg/mL in 30% ethanol/PBS
[8] = tiagabine hydrochloride 5 mg/mL in PBS

Row | Transdermal flux, Microneedle [4, 6] | Transdermal flux, Passive [4, 6] | Transdermal flux, Microneedle [4, 7] | Transdermal flux, Passive [4, 7] | Statistical significance of difference in flux, untreated versus microneedle-treated skin [4] | Transdermal flux, Microneedle [4, 8] | Transdermal flux, Passive [4, 8] | Flux Increase ([4]; tiagabine hydrochloride in PBS, microneedle versus passive) | Structure (SMILES) | Partition coefficient [1] | Aqueous solubility ([2]; at 32 °C in phosphate buffer saline of pH 7.4) | Clearance [3] | Excreted in urine unchanged [3] | Partition coefficient ([1]; tiagabine hydrochloride) | Aqueous solubility ([2]; tiagabine hydrochloride) | Blood–brain barrier passage ([3]; after drug administration) | Unchanged when excreted as urine [3] | Volume of distribution [3] | Transdermal flux enhancement [5]
1 | 10.85 ± 0.11 µg/cm^2/h | 7.85 ± 0.60 µg/cm^2/h | 36.73 ± 1.83 µg/cm^2/h | 30.74 ± 1.32 µg/cm^2/h | not statistically significant | – | – | – | NC(=O)N1c2ccccc2C=Cc2ccccc21 [Carbamazepine, carbamazepine] | 2.7 ± 0.3 | 440.6 ± 20.6 µg/mL | 1.87 ± 0.245 mL/min/kg | 1% | – | – | – | – | – | –
2 | – | – | – | – | statistically significant | 86.42 ± 25.66 µg/cm^2/h | 12.83 ± 6.30 µg/cm^2/h | 6.74 fold | Cc1ccsc1C(=CCCN1CCC[C@@H](C(=O)O)C1)c1sccc1C [Tiagabine hydrochloride, tiagabine hydrochloride] | – | – | – | – | 2.6 | 10000 µg/mL | readily cross the blood–brain barrier | less than 1% | 1 L/kg | –
3 | – | – | – | – | – | – | – | – | Cc1cc2c(s1)Nc1ccccc1N=C2N1CCN(C)CC1 [olanzapine] | – | – | – | – | – | – | – | – | – | did not observe significant transdermal flux enhancement
